Reference: patent US20260325654A1, “METHODS AND COMPOSITIONS FOR TARGETED PROTEIN DEGRADATION” (Ranok Therapeutics (Hangzhou) Co. Ltd., priority 2023, published 2026)

Key:
KRAS(G12D) = KRAS(G12D) (Homo sapiens, UniProt P01116, G12D); assay: cell-based; type: cell-based; set-up: Cell lines SW1990 and GP2D that express KRAS(G12D); host or cells: SW1990; conditions: SW1990, read-out: WB data SW1990 DMax
Description: Cell lines were cultured according to ATCC, JCRB and Sigma Aldrich recommendations.
Cells were then washed with cold PBS, aspirated and cold RIPA buffer containing a protease/phosphatase inhibitor cocktail was added to lyse cells. After centrifugation, the total protein concentrations of cell lysates were determined using the BCA protein assay. Samples were normalized for equivalent protein concentrations, 5× SDS-PAGE loading buffer added and denatured at 100° C. for 10 min. 20 μl of each sample/well was loaded on a SDS-PAGE gel and electrophoresed for 20 min at 80 V, then 120 V for 1.5 hr. Gels were then electroblotted to nitrocellulose membranes using a wet-transfer method at 250 mA for 2.5 hr. Membranes were incubated with blocking buffer for 1 hr and washed 3 times with TBST for 5 min. Membranes were then incubated with anti-KRAS (Sigma-Aldrich, #SAB1404011) and anti-β-Actin monoclonal antibodies (Cell Signaling Technology, #3700) diluted in blocking buffer at 4° C. overnight per the manufacturer's recommendations. After washing 3 times, blots were incubated with appropriately labeled secondary antibodies for 1 hr at room temperature and washed again. Fluorescence imaging and quantitation was performed using a LI-COR Odyssey. Results was analyzed using GraphPad Prism 7 software. Compound concentrations that induced KRAS degradation (DC50 and DCmax) were calculated using GraphPad Prism 7 software.

LU65A = assay: CellTiter-Glo Reagent cancer cell line proliferation assay, LU65A; type: cell-based, human; conditions: Homo sapiens, 24 h, KRAS(G12C) heterozygous
Source text: (§1) The following cancer cell lines were employed: • AsPC-1 human pancreatic adenocarcinoma, homozygous KRAS(G12D), (ATCC, #CRL-1682); A-427 human lung carcinoma, heterozygous KRAS(G12D), (ATCC, #HTB-53); AGS human gastric adenocarcinoma, heterozygous KRAS(G12D), (ATCC, #CRL-1739); GP2D human colon adenocarcinoma, heterozygous KRAS(G12D), (Sigma Aldrich, 95090714); SW1990 human pancreatic adenocarcinoma, homozygous KRAS(G12D), (ATCC, #CRL2172); LU65A human lung giant cell carcinoma, heterozygous KRAS(G12C), (JCRB Cell Bank, #JCRB0054); NCIH727 human lung carcinoid, heterozygous KRAS(G12V), (ATCC, #CRL-5815); MKN1 human gastric adenosquamous carcinoma KRAS (wt), (JCRB Cell Bank, #JCRB0252). Cell lines were cultured according to ATCC, JCRB and Sigma Aldrich recommendations.
(§2) Cells were plated in 96-well tissue culture plates at 4,000 cells/well and incubated at 37° C./5% CO2 for 24 hr in 100 μl of media. 3-fold serial dilutions of each test compound were prepared ranging from 20 μM to 1.02 nM. Cells were then treated with test compounds at various concentrations with a final concentration of 0.5% DMSO/well, and then incubated at 37° C./5% CO2 for 24 hr. 100 μl of CellTiter-Glo® Reagent (Promega Corporation, Madison, WI) was added to each well and processed according manufacturer's protocol. Results were analyzed and IC50-values were calculated in GraphPad 7 software.

MKN1 = assay: CellTiter-Glo Reagent cancer cell line proliferation assay, MKN1; type: cell-based; conditions: Homo sapiens, MKN-1; MKN1, KRAS (wt), 24 hr
Source text: as §1, §2

AGS = assay: CellTiter-Glo Reagent cancer cell line proliferation assay, AGS; type: cell-based, human; conditions: Homo sapiens, 24 h, KRAS(G12D) heterozygous
Source text: as §1, §2

GP2D = assay: CellTiter-Glo Reagent cancer cell line proliferation assay, GP2D; type: cell-based; conditions: Homo sapiens, KRAS(G12D) heterozygous, 24 hr
Source text: as §1, §2

NCIH727 = assay: CellTiter-Glo Reagent cancer cell line proliferation assay, NCIH727; type: cell-based, human; conditions: Homo sapiens, NCI-H727, 24 h, NCIH727, KRAS(G12V) heterozygous
Source text: as §1, §2

Chain of KRAS(G12D) (P01116 1-188 isoform P01116-2 G12D): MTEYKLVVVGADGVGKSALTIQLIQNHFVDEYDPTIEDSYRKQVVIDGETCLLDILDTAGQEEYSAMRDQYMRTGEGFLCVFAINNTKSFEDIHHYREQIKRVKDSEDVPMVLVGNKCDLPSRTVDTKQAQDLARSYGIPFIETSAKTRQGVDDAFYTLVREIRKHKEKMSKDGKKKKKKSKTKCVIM

IC50 (LU65A) | IC50 (MKN1) | IC50 (AGS) | IC50 (GP2D) | IC50 (NCIH727) | SMILES | Dmax (KRAS(G12D))
– | – | – | – | – | C#Cc1cccc2cc(O)cc(-c3ncc4c(N5CC6CCC(C5)N6)nc(OCC5(CN6CCN(CC7CCN(CC(=O)N[C@@H](C(=O)N8C[C@@H](O)C[C@@H]8C(=O)NCc8ccc(-c9scnc9C)cc8)C(C)(C)C)CC7)CC6)CC5)nc4c3F)c12 [Compound 52] | > 50%
< 100 nM | < 100 nM | – | – | – | C#Cc1c(F)ccc2cc(O)cc(-c3nc(OC)c4c(N5CCN(C(=O)C=C)[C@@H](CC#N)C5)nc(OCC5(CN6CCN(CC7CCN(c8ccc9c(c8)CN(C8CCC(=O)NC8=O)C9=O)CC7)CC6)CC5)nc4c3F)c12 (stereo partly drawn) [Compound 125] | –
– | – | – | – | – | C#Cc1c(F)ccc2cc(O)cc(-c3nc(OC)c4c(N5CC6CCC(C5)N6)nc(OCC5(CN6CCN(C7CCN(c8ccc9c(c8)CN(C8CCC(=O)NC8=O)C9=O)CC7)CC6)CC5)nc4c3F)c12 (stereo not drawn) [Compound 82] | > 50%
– | – | < 100 nM | < 100 nM | – | C#Cc1c(F)ccc2cc(O)cc(-c3ncc4c(N5C[C@H]6CC[C@@H](C5)N6)nc(OCC5(CN6CCC(CN7CCC(c8ccc9c(c8)CN(C8CCC(=O)NC8=O)C9=O)C(F)(F)C7)CC6)CC5)nc4c3F)c12 (stereo partly drawn) [Compound 93, 3-(5-(1-((1-((1-(((4-((1R,5S)-3,8-diazabicyclo[3.2.1]octan-3-yl)-7-(8-ethynyl-7-fluoro-3-hydroxynaphthalen-1-yl)-8-fluoropyrido[4,3-d]pyrimidin-2-yl)oxy)methyl)cyclopropyl)methyl)piperidin-4-yl)methyl)-3,3-difluoropiperidin-4-yl)-1-oxoisoindolin-2-yl) piperidine-2,6-dione] | –
< 100 nM | > 1000 nM | 100 to 1000 nM | 100 to 1000 nM | > 1000 nM | C#Cc1c(F)ccc2cc(O)cc(-c3ncc4c(N5CC6CCC(C5)N6C(=O)/C(C#N)=C/C5CC5)nc(OCC5(CN6CCN(CC7CCN(c8ccc9c(c8)CN(C8CCC(=O)NC8=O)C9=O)CC7)CC6)CC5)nc4c3F)c12 (stereo not drawn) [Compound 124] | –
– | – | – | – | – | C#Cc1c(F)ccc2cc(O)cc(-c3ncc4c(N5CC6CCC(C5)N6)nc(OCC5(CN6CCC(N7CCC(c8ccc9c(c8)CN(C8CCC(=O)NC8=O)C9=O)CC7)CC6)CC5)nc4c3F)c12 (stereo not drawn) [Compound 77] | > 50%
100 to 1000 nM | 100 to 1000 nM | > 1000 nM | > 1000 nM | > 1000 nM | C#Cc1c(F)ccc2cc(O)cc(-c3nc(OC)c4c(N5CCN(C(=O)CC#N)[C@@H](CC#N)C5)nc(OCC5(CN6CCN(CC7CCN(c8ccc9c(c8)CN(C8CCC(=O)NC8=O)C9=O)CC7)CC6)CC5)nc4c3F)c12 (stereo partly drawn) [Compound 104] | –
100 to 1000 nM | 100 to 1000 nM | 100 to 1000 nM | 100 to 1000 nM | 100 to 1000 nM | [2H]C([2H])([2H])Oc1nc(-c2cc(O)cc3ccc(F)c(C#C)c23)c(F)c2nc(OCC3(CN4CCN(CC5CCN(c6ccc(NC7CCC(=O)NC7=O)cc6)CC5)CC4)CC3)nc(N3CC4CCC(C3)N4C(=O)CC#N)c12 (stereo not drawn) [Compound 119] | –
< 100 nM | 100 to 1000 nM | > 1000 nM | > 1000 nM | 100 to 1000 nM | C#Cc1c(F)ccc2cc(O)cc(-c3ncc4c(N5CC6CCC(C5)N6C(=O)[C@H](C)C#N)nc(OCC5(CN6CCN(CC7CCN(c8ccc9c(c8)CN(C8CCC(=O)NC8=O)C9=O)CC7)CC6)CC5)nc4c3F)c12 (stereo partly drawn) [Compound 110] | –
< 100 nM | 100 to 1000 nM | < 100 nM | < 100 nM | < 100 nM | C#Cc1c(F)ccc2cc(O)cc(-c3nc(OC)c4c(N5CC6CCC(C5)N6C(=O)CCC#N)nc(OCC5(CN6CCN(CC7CCN(c8ccc9c(c8)CN(C8CCC(=O)NC8=O)C9=O)CC7)CC6)CC5)nc4c3F)c12 (stereo not drawn) [Compound 117] | –
< 100 nM | > 1000 nM | < 100 nM | < 100 nM | < 100 nM | C#Cc1c(F)ccc2cc(O)cc(-c3nc(OC)c4c(N5CC6CCC(C5)N6C(=O)NCC(F)(F)F)nc(OCC5(CN6CCN(CC7CCN(c8ccc9c(c8)CN(C8CCC(=O)NC8=O)C9=O)CC7)CC6)CC5)nc4c3F)c12 (stereo not drawn) [Compound 123] | –
< 100 nM | > 1000 nM | > 1000 nM | 100 to 1000 nM | > 1000 nM | O=CO.[2H]C([2H])([2H])Oc1nc(-c2cc(O)cc3ccc(F)c(C#C)c23)c(F)c2nc(OCC3(CN4CCN(CC5CCN(c6ccc7c(c6)CN(C6CCC(=O)NC6=O)C7=O)CC5)CC4)CC3)nc(N3CC4CCC(C3)N4C(=O)C(C#N)CC(F)(F)F)c12 (stereo not drawn) [Compound 121] | –
100 to 1000 nM | 100 to 1000 nM | 100 to 1000 nM | < 100 nM | > 1000 nM | C#Cc1c(F)ccc2cc(O)cc(-c3ncc4c(N5CC6CCC(C5)N6C(=O)NC(C)(C)C)nc(OCC5(CN6CCN(CC7CCN(c8ccc9c(c8)CN(C8CCC(=O)NC8=O)C9=O)CC7)CC6)CC5)nc4c3F)c12 (stereo not drawn) [Compound 118] | –
< 100 nM | – | < 100 nM | – | < 100 nM | C#Cc1c(F)ccc2cc(O)cc(-c3nc(OC)c4c(N5CC6CCC(C5)N6C(=O)CC(C)C#N)nc(OCC5(CN6CCN(C[C@H]7CCN(c8ccc9c(c8)CN(C8CCC(=O)NC8=O)C9=O)C[C@@H]7F)CC6)CC5)nc4c3F)c12 (stereo partly drawn) [Compound 154] | –
< 100 nM | – | < 100 nM | – | < 100 nM | C#Cc1c(F)ccc2cc(O)cc(-c3ncc4c(N5CC6CCC(C5)N6C(=O)CC(C)C#N)nc(OCC5CCCN(CC6CCN(c7ccc8c(c7)CN(C7CCC(=O)NC7=O)C8=O)CC6)C5)nc4c3F)c12 (stereo not drawn) [Compound 133] | –
< 100 nM | – | < 100 nM | – | < 100 nM | C#Cc1c(F)ccc2cc(O)cc(-c3ncc4c(N5CC6CCC(C5)N6C(=O)CC(C)C#N)nc(OCC5(CN6CCN(CC7CCN(c8ccc(NC9CCC(=O)NC9=O)cc8F)CC7)CC6)CC5)nc4c3F)c12 (stereo not drawn) [Compound 137] | –
< 100 nM | > 1000 nM | < 100 nM | < 100 nM | 100 to 1000 nM | C#Cc1c(F)ccc2cc(O)cc(-c3nc(OC)c4c(N5CC6CCC(C5)N6C(=O)NCC#N)nc(OCC5(CN6CCN(CC7CCN(c8ccc9c(c8)CN(C8CCC(=O)NC8=O)C9=O)CC7)CC6)CC5)nc4c3F)c12 (stereo not drawn) [Compound 122] | –
< 100 nM | – | < 100 nM | – | < 100 nM | C#Cc1c(F)ccc2cc(O)cc(-c3ncc4c(N5CC6CCC(C5)N6C(=O)CC(C)C#N)nc(OCC5(CN(C)Cc6ccc(C7CN(c8ccc9c(c8)CN(C8CCC(=O)NC8=O)C9=O)C7)cc6)CC5)nc4c3F)c12 (stereo not drawn) [Compound 132] | –
< 100 nM | – | < 100 nM | – | < 100 nM | C#Cc1c(F)ccc2cc(O)cc(-c3nc(OC)c4c(N5CC6CCC(C5)N6C(=O)CC(C)C#N)nc(OCC5(CNC6CCC(=O)NC6=O)CC5)nc4c3F)c12 (stereo not drawn) [Compound 145] | –
< 100 nM | – | < 100 nM | – | < 100 nM | C#Cc1c(F)ccc2cc(O)cc(-c3nc(OC(F)(F)F)c4c(N5CC6CCC(C5)N6C(=O)CCC#N)nc(OCC5(CN6CCN(CC7CCN(c8ccc9c(c8)CN(C8CCC(=O)NC8=O)C9=O)CC7)CC6)CC5)nc4c3F)c12 (stereo not drawn) [Compound 151] | –
– | – | > 1000 nM | 100 to 1000 nM | – | [2H]C([2H])([2H])Oc1nc(-c2cc(O)cc3ccc(F)c(C#C)c23)c(F)c2nc(OCC3(CN4CCN(CC5CCN(c6ccc7c(c6)CN(C6CCC(=O)NC6=O)C7=O)CC5)CC4)CC3)nc(N3CC4CCC(C3)N4CC3CC3)c12 (stereo not drawn) [Compound 99] | –
< 100 nM | – | < 100 nM | – | < 100 nM | N#Cc1c(N)sc2c1C1(CCC2)CCCc2c(-c3nc(Cl)cc(OCC4(CN5CCN(CC6CCN(c7ccc8c(c7)CN(C7CCC(=O)NC7=O)C8=O)CC6)CC5)CC4)n3)noc21 (stereo not drawn) [Compound 156] | –
